Patent publication US6911475B1, “Use of nicotine or its derivatives in a drug for treating neurological disease, in particular Parkinson's disease” (Assistance Publique-Hopitaux de Paris, priority 1999, dated 2005)
Where two headings read alike, the source gives them in different places.

Experiments:
Parkinson's disease [1] = tested on: Parkinson's disease
Description: (§1) The physical symptoms studied were: tremor, axial rigidity, gait and speech. The neuro-psychological symptoms were memory and sexual activity.
(§2) Over a period of six months, nicotine patches were administered to the patient, firstly using increasing doses over the first three months to reach a dose of 102 mg per day and then by combining two types of patch, namely a patch in the form of a slow release patch (patch P) and rapid release patches (patch R). Each patch P contained 21 mg of nicotine and each patch R contained 15 mg of nicotine.

Parkinson's disease [2] = tested on: Parkinson's disease; remark: listed apart in the source
Description: as §1, §2
Overall, the daily dose was 21 mg the first month and stabilized at 102 mg from the fourth month, divided into 42 mg under slow release and 60 mg under rapid release.
Concomitantly, L-DOPA was administered in a decreasing dose with time; in contrast, the bromocriptine dose was unchanged and remained at 30 mg per day over the entire treatment, as shown in Table II below.

Parkinson's disease [3] = tested on: Parkinson's disease; remark: listed apart in the source
Description: Clinical evaluation of the effect of the drug of the invention and of the treatment method was carried out using conventional UPDRS I, II and III neurological tests. These tests enabled both neuro-psychological and physical effects to be measured.
The UPDRS I test measures, on a scale of 0 to 4, mentation, behaviour and mood of the patient, taking into account the criteria of intellectual impairment, thought disorder, depression and motivation/initiative.
The UPDRS II test measures a series of sensory or motor physical tests, also on a scale of 0 to 4.
The UPDRS III test measures the motor activity of the patient, again on a scale of 0 to 4.
Zero indicates a normal state and four indicates maximum perturbation.
Clinical evaluation was based on the L-DOPA test and was carried out as follows:
The UPDRS test used is described below.
It consisted of halting the L-DOPA therapy to a zero dose 12 to 24 hours before the test.
The next day, every half hour, the condition and the clinical changes in the patient was measured during stoppage (“off” period, no L-DOPA) then the clinical changes during resumption (“on” period with L-DOPA). The time was measured using a chronometer.
This test was carried out with UPDRS measurements as described above: • motor UPDRS (Unified Parkinson's Disease Rating Scale); • UPDRS I (mental state of patient); • UPDRS II (daily life, on-off); ADL (activities of daily living); • Self-evaluation test (test carried out by the patient, verification and confirmation by physician of fluctuations in on-off periods during the day).

[4] = Re-administer nicotine at 102 mg/kg/d, after a period without nicotine

CN1CCCC1c1cccnc1 (centres unmarked) [nicotine]
Sexual problems and urinary dysfunction (Parkinson's disease [1]; after four months of treatment, problems present for two years): completely re-established functions
Depressive episodes (Parkinson's disease [1]; under nicotine treatment): reduced
Memory disorders (Parkinson's disease [1]; under nicotine treatment): reduced
Neuro-psychological manifestations of Parkinson's disease (Parkinson's disease [1]; within six months from commencing treatment): disappeared completely
Axial rigidity (Parkinson's disease [2]; [4]): 0
Gait (Parkinson's disease [2]; [4]): 0
Speech (Parkinson's disease [2]; [4]): 0
Tremor (Parkinson's disease [2]; [4]): 1
Axial rigidity (Parkinson's disease [2]; With nicotine treatment): 0
Gait (Parkinson's disease [2]; With nicotine treatment): 0
Speech (Parkinson's disease [2]; With nicotine treatment): 0
Tremor (Parkinson's disease [2]; With nicotine treatment, patient, concomitant L-DOPA and 30 mg/day bromocriptine, 0 = normal, 4 = maximum perturbation): 1
Axial rigidity (in words) (Parkinson's disease [2]; nicotine treatment, Table III): completely abolished
Gait and speech (in words) (Parkinson's disease [2]; nicotine treatment, Table III): normalised
Symptomatic effect of stopping administration of nicotine (Parkinson's disease [2]; stopping nicotine in the eighth month): no symptomatic effect
UPDRS I (mental state) (Parkinson's disease [3]; With nicotine treatment (6 months later), day 0 without nicotine: 10): 0
UPDRS II off (daily activity, ADL) (Parkinson's disease [3]; With nicotine treatment (6 months later), off = no L-DOPA, day 0 without nicotine: 22): 10
UPDRS II on (daily activity, ADL) (Parkinson's disease [3]; With nicotine treatment (6 months later), on = with L-DOPA, day 0 without nicotine: 13): 6
UPDRS score for the "off" periods (FIG. 2) (Parkinson's disease [3]; no L-DOPA, 30 mg bromocriptine, over nicotine treatment, except in the seventh month (nicotine interrupted)): reduction in the score
UPDRS measurements in the "on" periods (FIG. 2) (Parkinson's disease [3]; with L-DOPA (250 mg first test, 187.50 mg after six months), 30 mg bromocriptine, over nicotine treatment): constant decrease
